Holding throughout (format): cell-based, hepatitis C virus (genotype 1a-H77)
Assay [1] concerns HCV replicon with a D168E mutation in a 1a-H77 background. In words: transient replicon assay, D168E mutation in 1a-H77 background. Conditions: Hepatitis C virus, read-out: EC50 in a transient replicon assay with a D168E mutation in a 1a-H77 background. The procedure, abridged: (§1)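 Transient transfection of mutant replicon RNA (1a-H77 with NS2–NS5B, or 1b-N with NS3–NS5B plus E1202G/S2204I) by electroporation into IFN-cured Huh7 cells, plated at 7.5×10^3 cells per well in DMEM with 5% FBS. Serial compound dilutions added 4 h post-transfection (0.5% DMSO final).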

For assay [2], the system named is HCV replicon with a D168V mutation in a 1a-H77 background. In words: transient replicon assay, D168V mutation in 1a-H77 background. The following applies: Hepatitis C virus, read-out: EC50 in a transient replicon assay with a D168V mutation in a 1a-H77 background. The procedure, abridged:
as §1

The test system of assay [3] is HCV replicon with a R155K mutation in a 1a-H77 background. In words: transient replicon assay, R155K mutation in 1a-H77 background. Conditions: Hepatitis C virus, read-out: EC50 in a transient replicon assay with a R155K mutation in a 1a-H77 background. The procedure, abridged: as §1

SMILES strings stand for the structures.

On to `Cc1onc(C(=O)N[C@H]2CCCCC/C=C\[C@@H]3C[C@@]3(C(=O)NS(=O)(=O)C3CC3)NC(=O)[C@@H]3C[C@@H](Oc4nc5ccccc5nc4C(C)(F)F)CN3C2=O)c1C` [Example 6, N-((2R,6S,13aS,14aR,16aS,Z)-14a-(cyclopropylsulfonylcarbamoyl)-2-(3-(1,1-difluoroethyl)quinoxalin-2-yloxy)-5,16-dioxo-1,2,3,5,6,7,8,9,10,11,13a,14,14a,15,16,16a-hexadecahydrocyclopropa[e]pyrrolo[1,2-a][1,4]diazacyclopentadecin-6-yl)-4,5-dimethylisoxazole-3-carboxamide], for which the EC50 in assay [1] is under 3 nM; in assay [2], 50 to 250 nM; in assay [3] it was 1 to 10 nM.
The matching figures for `Cc1nc2ccc(F)cc2nc1O[C@@H]1C[C@H]2C(=O)N[C@]3(C(=O)NS(=O)(=O)C4CC4)C[C@H]3/C=C\CCCCC[C@H](NC(=O)c3noc(C)c3C)C(=O)N2C1` [Example 21, N-((2R,6S,13aS,14aR,16aS,Z)-14a-(cyclopropylsulfonylcarbamoyl)-2-(7-fluoro-3-methylquinoxalin-2-yloxy)-5,16-dioxo-1,2,3,5,6,7,8,9,10,11,13a,14,14a,15,16,16a-hexadecahydrocyclopropa[e]pyrrolo[1,2-a][1,4]diazacyclopentadecin-6-yl)-4,5-dimethylisoxazole-3-carboxamide]: under 3 nM, under 25 nM and under 1 nM.
The matching figures for `Cc1cc(C(=O)N[C@H]2CCCCC/C=C\[C@@H]3C[C@@]3(C(=O)NS(=O)(=O)C3CC3)NC(=O)[C@@H]3C[C@@H](Oc4nc5ccccc5nc4C(F)(F)F)CN3C2=O)[nH]n1` [Example 13]: over 100 nM, 250 to 1000 nM and 10 to 25 nM.
For the molecule `Cc1cc(C(=O)N[C@H]2CCCCC/C=C\[C@@H]3C[C@@]3(C(=O)NS(=O)(=O)C3(C)CC3)NC(=O)[C@@H]3C[C@@H](Oc4nc5c(F)cccc5nc4C(F)(F)F)CN3C2=O)no1` [Example 115, N-((2R,6S,13aS,14aR,16aS,Z)-2-(8-fluoro-3-(trifluoromethyl)quinoxalin-2-yloxy)-14a-(1-methylcyclopropylsulfonylcarbamoyl)-5,16-dioxo-1,2,3,5,6,7,8,9,10,11,13a,14,14a,15,16,16a-hexadecahydrocyclopropa[e]pyrrolo[1,2-a][1,4]diazacyclopentadecin-6-yl)-5-methylisoxazole-3-carboxamide], the EC50 in assay [1] was under 3 nM; in assay [2] it was under 25 nM; in assay [3], under 1 nM.
The matching figures for `CC(C)(C)OC(=O)N[C@H]1CCCCC/C=C\[C@@H]2C[C@@]2(C(=O)NS(=O)(=O)C2(C)CC2)NC(=O)[C@@H]2C[C@@H](Oc3nc4c(F)cccc4nc3C(F)(F)F)CN2C1=O` [Example 114, tert-butyl (2R,6S,13aS,14aR,16aS,Z)-2-(8-fluoro-3-(trifluoromethyl)quinoxalin-2-yloxy)-14a-(1-methylcyclopropylsulfonylcarbamoyl)-5,16-dioxo-1,2,3,5,6,7,8,9,10,11,13a,14,14a,15,16,16a-hexadecahydrocyclopropa[e]pyrrolo[1,2-a][1,4]diazacyclopentadecin-6-ylcarbamate]: 3 to 20 nM, 50 to 250 nM and under 1 nM.
On the same counts, the results for `CC(C)(C)OC(=O)N[C@H]1CCCCC/C=C\[C@@H]2C[C@@]2(C(=O)NS(=O)(=O)C2CC2)NC(=O)[C@@H]2C[C@@H](Oc3nc4cc(F)ccc4nc3C(C)(F)F)CN2C1=O` [Example 116, tert-butyl (2R,6S,13aS,14aR,16aS,Z)-14a-(cyclopropylsulfonylcarbamoyl)-2-(3-(1,1-difluoroethyl)-7-fluoroquinoxalin-2-yloxy)-5,16-dioxo-1,2,3,5,6,7,8,9,10,11,13a,14,14a,15,16,16a-hexadecahydrocyclopropa[e]pyrrolo[1,2-a][1,4]diazacyclopentadecin-6-ylcarbamate] are 3 to 20 nM, 25 to 50 nM and under 1 nM.
The matching figures for `CC(C)(C)OC(=O)N[C@H]1CCCCC/C=C\[C@@H]2C[C@@]2(C(=O)NS(=O)(=O)C2CC2)NC(=O)[C@@H]2C[C@@H](Oc3nc4c(F)cccc4nc3C(F)(F)F)CN2C1=O` [Example 112, tert-butyl (2R,6S,13aS,14aR,16aS,Z)-14a-(cyclopropylsulfonylcarbamoyl)-2-(8-fluoro-3-(trifluoromethyl)quinoxalin-2-yloxy)-5,16-dioxo-1,2,3,5,6,7,8,9,10,11,13a,14,14a,15,16,16a-hexadecahydrocyclopropa[e]pyrrolo[1,2-a][1,4]diazacyclopentadecin-6-ylcarbamate]: 3 to 20 nM, 25 to 50 nM and under 1 nM.
`CCc1nc2ccc(F)cc2nc1O[C@@H]1C[C@H]2C(=O)N[C@]3(C(=O)NS(=O)(=O)C4(C)CC4)C[C@H]3/C=C\CCCCC[C@H](NC(=O)c3cc(C4CC4)on3)C(=O)N2C1` [Example 151, 5-cyclopropyl-N-((2R,6S,13aS,14aR,16aS,Z)-2-(3-ethyl-7-fluoroquinoxalin-2-yloxy)-14a-(1-methylcyclopropylsulfonylcarbamoyl)-5,16-dioxo-1,2,3,5,6,7,8,9,10,11,13a,14,14a,15,16,16a-hexadecahydrocyclopropa[e]pyrrolo[1,2-a][1,4]diazacyclopentadecin-6-yl)isoxazole-3-carboxamide]: the figures for the half-maximal effective concentration (EC50) in assay [1], in assay [2] and in assay [3] were 3 to 20 nM, under 25 nM and 1 to 10 nM, respectively.
On the same counts, the results for `Cn1ccc(C(=O)N[C@H]2CCCCC/C=C\[C@@H]3C[C@@]3(C(=O)NS(=O)(=O)C3CC3)NC(=O)[C@@H]3C[C@@H](Oc4nc5ccccc5nc4C(F)(F)F)CN3C2=O)n1` [Example 12] are 50 to 100 nM, 250 to 1000 nM and 10 to 25 nM.
On to `Cc1nc2ccc(F)cc2nc1O[C@@H]1C[C@H]2C(=O)N[C@]3(C(=O)NS(=O)(=O)C4CC4)C[C@H]3/C=C\CCCCC[C@H](NC(=O)OC(C)(C)C)C(=O)N2C1` [Example 20, tert-butyl (2R,6S,13aS,14aR,16aS,Z)-14a-(cyclopropylsulfonylcarbamoyl)-2-(7-fluoro-3-methylquinoxalin-2-yloxy)-5,16-dioxo-1,2,3,5,6,7,8,9,10,11,13a,14,14a,15,16,16a-hexadecahydrocyclopropa[e]pyrrolo[1,2-a][1,4]diazacyclopentadecin-6-ylcarbamate], for which the figures for the EC50 in assay [1], in assay [2] and in assay [3] were 3 to 20 nM, 25 to 50 nM and under 1 nM, respectively.
On the same counts, the results for `CC(C)(C)OC(=O)N[C@H]1CCCCC/C=C\[C@@H]2C[C@@]2(C(=O)NS(=O)(=O)C2CC2)NC(=O)[C@@H]2C[C@@H](Oc3nc4ccccc4nc3C(C)(F)F)CN2C1=O` [Example 1, tert-butyl (2R,6S,13aS,14aR,16aS,Z)-14a-(cyclopropylsulfonylcarbamoyl)-2-(3-(1,1-difluoroethyl)quinoxalin-2-yloxy)-5,16-dioxo-1,2,3,5,6,7,8,9,10,11,13a,14,14a,15,16,16a-hexadecahydrocyclopropa[e]pyrrolo[1,2-a][1,4]diazacyclopentadecin-6-ylcarbamate] are 3 to 20 nM, 50 to 250 nM and under 1 nM.
On the same counts, the results for `CCc1nc2cccc(F)c2nc1O[C@@H]1C[C@H]2C(=O)N[C@]3(C(=O)NS(=O)(=O)C4CC4)C[C@H]3/C=C\CCCCC[C@H](NC(=O)c3cc(C)on3)C(=O)N2C1` [Example 162, N-((2R,6S,13aS,14aR,16aS,Z)-14a-(cyclopropylsulfonylcarbamoyl)-2-(3-ethyl-8-fluoroquinoxalin-2-yloxy)-5,16-dioxo-1,2,3,5,6,7,8,9,10,11,13a,14,14a,15,16,16a-hexadecahydrocyclopropa[e]pyrrolo[1,2-a][1,4]diazacyclopentadecin-6-yl)-5-methylisoxazole-3-carboxamide] are 3 to 20 nM, 50 to 250 nM and 1 to 10 nM.
Regarding `CCc1nc2ccc(F)cc2nc1O[C@@H]1C[C@H]2C(=O)N[C@]3(C(=O)NS(=O)(=O)C4CC4)C[C@H]3/C=C\CCCCC[C@H](NC(=O)c3noc(C)c3C)C(=O)N2C1` [Example 123, N-((2R,6S,13aS,14aR,16aS,Z)-14a-(cyclopropylsulfonylcarbamoyl)-2-(3-ethyl-7-fluoroquinoxalin-2-yloxy)-5,16-dioxo-1,2,3,5,6,7,8,9,10,11,13a,14,14a,15,16,16a-hexadecahydrocyclopropa[e]pyrrolo[1,2-a][1,4]diazacyclopentadecin-6-yl)-4,5-dimethylisoxazole-3-carboxamide], the half-maximal effective concentration (EC50) in assay [1] fell in the range of 3 to 20 nM; in assay [2], 50 to 250 nM; in assay [3], 1 to 10 nM.
The matching figures for `CCc1nc2ccc(F)cc2nc1O[C@@H]1C[C@H]2C(=O)N[C@]3(C(=O)NS(=O)(=O)C4(C)CC4)C[C@H]3/C=C\CCCCC[C@H](NC(=O)OC(C)(C)C)C(=O)N2C1` [Example 125, tert-butyl (2R,6S,13aS,14aR,16aS,Z)-2-(3-ethyl-7-fluoroquinoxalin-2-yloxy)-14a-(1-methylcyclopropylsulfonylcarbamoyl)-5,16-dioxo-1,2,3,5,6,7,8,9,10,11,13a,14,14a,15,16,16a-hexadecahydrocyclopropa[e]pyrrolo[1,2-a][1,4]diazacyclopentadecin-6-ylcarbamate]: 3 to 20 nM, 25 to 50 nM and under 1 nM.

Values taken from patent US9493506B2 (Enanta Pharmaceuticals, Inc., priority 2010, dated 2016).
